Source: ChEMBL document CHEMBL3232801, “Oxidative stress in Alzheimer's disease: are we connecting the dots?” (J Med Chem, 2014)

Assays:
[1] = biological target: T1, Acetylcholinesterase (Homo sapiens, UniProt P22303); test: Inhibition of AChE (unknown origin)
[2] = biological target: T2, Amyloid-beta precursor protein (Homo sapiens, UniProt P05067); test: Inhibition of amyloid beta (unknown origin) aggregation at 10 uM
[3] = biological target: T1, Acetylcholinesterase; test: Inhibition of AChE (unknown origin) assessed as inhibition of ROS production
[4] = biological target: T1, Acetylcholinesterase; test: Inhibition of AChE (unknown origin)-mediated amyloid beta aggregation at 100 uM
[5] = biological target: T2, Amyloid-beta precursor protein; test: Inhibition of amyloid beta (unknown origin) aggregation at 25 uM
[6] = biological target: T2, Amyloid-beta precursor protein; test: Inhibition of amyloid beta (unknown origin) aggregation

T1 sequence (P22303 whole entry): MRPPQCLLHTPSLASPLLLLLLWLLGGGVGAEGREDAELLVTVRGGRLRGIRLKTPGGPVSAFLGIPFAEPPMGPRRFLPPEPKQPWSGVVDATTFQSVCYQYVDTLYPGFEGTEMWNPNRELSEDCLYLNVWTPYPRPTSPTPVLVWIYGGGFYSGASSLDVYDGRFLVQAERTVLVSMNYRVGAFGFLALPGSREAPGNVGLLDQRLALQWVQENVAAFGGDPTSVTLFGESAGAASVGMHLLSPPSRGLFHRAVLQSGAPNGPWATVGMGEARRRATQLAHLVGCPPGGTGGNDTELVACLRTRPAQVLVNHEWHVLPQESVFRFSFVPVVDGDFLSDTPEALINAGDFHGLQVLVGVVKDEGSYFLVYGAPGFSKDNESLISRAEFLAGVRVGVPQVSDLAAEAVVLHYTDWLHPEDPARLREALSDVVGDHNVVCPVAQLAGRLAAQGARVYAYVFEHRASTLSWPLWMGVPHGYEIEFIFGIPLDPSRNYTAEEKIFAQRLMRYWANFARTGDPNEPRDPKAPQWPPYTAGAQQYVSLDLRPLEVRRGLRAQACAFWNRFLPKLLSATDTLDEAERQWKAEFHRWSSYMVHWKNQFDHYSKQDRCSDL
T2 sequence (P05067 whole entry): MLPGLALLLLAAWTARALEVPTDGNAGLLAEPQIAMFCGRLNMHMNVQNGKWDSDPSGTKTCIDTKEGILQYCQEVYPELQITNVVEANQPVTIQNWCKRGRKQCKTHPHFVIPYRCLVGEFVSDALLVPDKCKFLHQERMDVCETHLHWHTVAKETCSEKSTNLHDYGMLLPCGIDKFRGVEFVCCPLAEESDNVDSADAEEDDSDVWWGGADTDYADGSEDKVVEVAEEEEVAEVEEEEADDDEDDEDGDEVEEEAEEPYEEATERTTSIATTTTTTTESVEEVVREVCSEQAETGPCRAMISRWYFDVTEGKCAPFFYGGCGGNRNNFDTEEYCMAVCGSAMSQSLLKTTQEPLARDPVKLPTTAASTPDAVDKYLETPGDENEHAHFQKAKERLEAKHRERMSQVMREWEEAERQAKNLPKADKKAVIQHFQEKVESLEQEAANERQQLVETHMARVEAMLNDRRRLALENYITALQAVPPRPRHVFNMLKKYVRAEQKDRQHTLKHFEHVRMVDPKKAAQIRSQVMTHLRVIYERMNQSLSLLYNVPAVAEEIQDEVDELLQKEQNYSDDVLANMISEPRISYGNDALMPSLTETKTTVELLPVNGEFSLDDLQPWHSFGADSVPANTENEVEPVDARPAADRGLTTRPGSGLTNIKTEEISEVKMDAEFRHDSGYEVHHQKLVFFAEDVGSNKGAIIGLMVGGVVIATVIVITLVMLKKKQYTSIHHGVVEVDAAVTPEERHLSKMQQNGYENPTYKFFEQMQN

Row | SMILES | IC50 [1] | inhibition [2] | IC50 [3] | inhibition [4] | inhibition [5] | IC50 [6]
1 | O=C(CCCOc1cccc2[nH]c3ccccc3c12)NCCCNc1c2c(nc3ccccc13)CCCC2 | 2.15 nM | 36% | 23000 nM | 57.7% |  | 
2 | COc1cc(/C=C/C(=O)NCCCCCCNc2c3c(nc4ccccc24)CCCC3)ccc1O | 11.6 nM |  |  |  | 100% | 
3 | c1ccc2c(NCCSSCCNc3c4c(nc5ccccc35)CCCC4)c3c(nc2c1)CCCC3 | 5.04 nM |  |  | 52.6% |  | 24200 nM
